Ki data for 23 compounds are collected here from patent US8299048B2, “Hexahydrocyclopentyl[f]indazole sulfonamides and derivatives thereof as selective glucocorticoid receptor modulators” (Merck Sharp & Dohme Corp., priority 2008, dated 2012).

SMILES strings stand for the structures.

The assay concerns the target T1, glucocorticoid receptor (Homo sapiens, UniProt P04150).
T1 construct: endogenous in cells
T1 sequence (P04150 1-777): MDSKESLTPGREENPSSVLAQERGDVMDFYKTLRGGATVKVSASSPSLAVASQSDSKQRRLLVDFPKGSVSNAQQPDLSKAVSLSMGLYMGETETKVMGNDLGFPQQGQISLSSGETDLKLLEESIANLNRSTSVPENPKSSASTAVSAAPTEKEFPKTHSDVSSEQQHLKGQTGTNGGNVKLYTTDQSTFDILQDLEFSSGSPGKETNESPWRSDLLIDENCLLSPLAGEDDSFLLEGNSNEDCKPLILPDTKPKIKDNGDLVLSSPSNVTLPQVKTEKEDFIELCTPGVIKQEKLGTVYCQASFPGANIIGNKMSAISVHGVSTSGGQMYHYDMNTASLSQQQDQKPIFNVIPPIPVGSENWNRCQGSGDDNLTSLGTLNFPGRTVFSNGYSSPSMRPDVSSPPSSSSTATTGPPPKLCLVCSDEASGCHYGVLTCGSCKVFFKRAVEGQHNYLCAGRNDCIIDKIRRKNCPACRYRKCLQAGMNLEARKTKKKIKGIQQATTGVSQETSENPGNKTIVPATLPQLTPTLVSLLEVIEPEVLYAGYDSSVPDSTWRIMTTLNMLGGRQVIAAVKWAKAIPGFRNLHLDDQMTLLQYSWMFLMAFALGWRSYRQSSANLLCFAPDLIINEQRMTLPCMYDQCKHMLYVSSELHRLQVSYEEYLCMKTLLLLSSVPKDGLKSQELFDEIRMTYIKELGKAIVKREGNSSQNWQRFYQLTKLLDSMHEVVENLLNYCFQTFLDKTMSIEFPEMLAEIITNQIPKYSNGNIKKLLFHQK
As to the kind of experiment: Ligand binding assay (GR BIND). In short, it runs like this:
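Displacement of tritiated dexamethasone (6 nM trace solution) from receptor in cell supernatant was measured after overnight incubation at 4 °C in molybdate-containing TEGM, pH 7.2, 2% ethanol. Hydroxylapatite pulled down the receptor–ligand complex for filter washing and scintillation counting, with dexamethasone as reference.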
The compound `C[C@]12Cc3cnn(-c4ccc(F)cc4)c3C=C1CC[C@@H]2CN(CC#N)S(=O)(=O)c1cc(Cl)c(Cl)s1` [Example 24, 4,5-dichloro-N-(cyanomethyl)-N-{[(4αR,5S)-1-(4-fluorophenyl)-4α-methyl-1,4,4α,5,6,7-hexahydrocyclopenta[f]indazol-5-yl]methyl}thiophene-2-sulfonamide] showed a Ki of 5.3 nM. `C[C@]12Cc3cnn(-c4ccc(F)cc4)c3C=C1CC[C@@H]2CN(CC#N)S(=O)(=O)c1ccc(F)c(F)c1` [Example 25, N-(cyanomethyl)-3,4-difluoro-N-{[(4αR,5S)-1-(4-fluorophenyl)-4α-methyl-1,4,4α,5,6,7-hexahydrocyclopenta[f]indazol-5-yl]methyl}benzenesulfonamide] registered a Ki of 2.5 nM.

In the case of `C[C@]12Cc3cnn(-c4ccc(F)cc4)c3C=C1CC[C@@H]2CN(CC#N)S(=O)(=O)c1cccc(Cl)c1Cl` [Example 26, 2,3-dichloro-N-(cyanomethyl)-N-{[(4αR,5S)-1-(4-fluorophenyl)-4α-methyl-1,4,4α,5,6,7-hexahydrocyclopenta[f]indazol-5-yl]methyl}benzenesulfonamide], affinity was put at a Ki of 9.7 nM. On to `C[C@]12Cc3cnn(-c4ccc(F)cc4)c3C=C1CC[C@@H]2CN(CC#N)S(=O)(=O)c1ccc(Cl)c(C(F)(F)F)c1` [Example 27, 4-chloro-N-(cyanomethyl)-N-{[(4αR,5S)-1-(4-fluorophenyl)-4α-methyl-1,4,4α,5,6,7-hexahydrocyclopenta[f]indazol-5-yl]methyl}-3-(trifluoromethyl)benzenesulfonamide], for which the inhibitory constant (Ki) was found to be 8.8 nM.

Compound `C[C@]12Cc3cnn(-c4ccc(F)cc4)c3C=C1CC[C@@H]2CN(CC#N)S(=O)(=O)c1ccc(C#N)cc1` [Example 28, 4-cyano-N-(cyanomethyl)-N-{[(4αR,5S)-1-(4-fluorophenyl)-4α-methyl-1,4,4α,5,6,7-hexahydrocyclopenta[f]indazol-5-yl]methyl}benzenesulfonamide] registered an inhibition constant (Ki) of 2.3 nM.

For `Cc1cc(S(=O)(=O)N(CC#N)C[C@H]2CCC3=Cc4c(cnn4-c4ccc(F)cc4)C[C@@]32C)c(C)cc1Cl` [Example 29, 4-chloro-N-(cyanomethyl)-N-{[(4αR,5S)-1-(4-fluorophenyl)-4α-methyl-1,4,4α,5,6,7-hexahydrocyclopenta[f]indazol-5-yl]methyl}-2,5-dimethylbenzenesulfonamide], the inhibitory constant (Ki) was determined as 8.4 nM. The compound `C[C@]12Cc3cnn(-c4ccc(F)cc4)c3C=C1CC[C@@H]2CN(CC#N)S(=O)(=O)Cc1cccc(C(F)(F)F)c1` [Example 30, N-(cyanomethyl)-N-{[(4αR,5S)-1-(4-fluorophenyl}-4α-methyl-1,4,4α,5,6,7-hexahydrocyclopenta[f]indazol-5-yl]methyl}-1-[3-(trifluoromethyl)phenyl]methanesulfonamide] had an inhibitory constant (Ki) of 7.6 nM. Take `Cc1ccc(S(=O)(=O)N(CC#N)C[C@H]2CCC3=Cc4c(cnn4-c4ccc(F)cc4)C[C@@]32C)s1` [Example 31, N-(cyanomethyl)-N-{[(4αR,5S)-1-(4-fluorophenyl}-4α-methyl-1,4,4α,5,6,7-hexahydrocyclopenta[f]indazol-5-yl]methyl}-5-methylthiophene-2-sulfonamide]: affinity was put at a Ki of 6.1 nM. The same measure for `Cn1cc(S(=O)(=O)N(CC#N)C[C@H]2CCC3=Cc4c(cnn4-c4ccc(F)cc4)C[C@@]32C)c(C(F)(F)F)n1` [Example 32, N-(cyanomethyl)-N-{[(4αR,5S)-1-(4-fluorophenyl}-4α-methyl-1,4,4α,5,6,7-hexahydrocyclopenta[f]indazol-5-yl]methyl}-1-methyl-3-(trifluoromethyl)-1H-pyrazole-4-sulfonamide]: 3.9 nM; for `Cc1cc(S(=O)(=O)N(CC#N)C[C@H]2CCC3=Cc4c(cnn4-c4ccc(F)cc4)C[C@@]32C)c(C)o1` [Example 33, (4αR,5S)-5-({(cyanomethyl)[(2,5-dimethyl-3-furyl)sulfonyl]amino}methyl)-1-(4-fluorophenyl)-4α-methyl-1,4,4α,5,6,7-hexahydrocyclopenta[f]indazol-2-ium]: 8.8 nM; for `COC(=O)c1sccc1S(=O)(=O)N(CC#N)C[C@H]1CCC2=Cc3c(cnn3-c3ccc(F)cc3)C[C@@]21C` [Example 34, methyl 3-[((cyanomethyl){[(4αR,5S)-1-(4-fluorophenyl)-4α-methyl-1,4,4α,5,6,7-hexahydrocyclopenta[f]indazol-5-yl]methyl}amino)sulfonyl]thiophene-2-carboxylate]: 1.7 nM.

As for `Cn1nc(C(F)(F)F)cc1-c1ccc(S(=O)(=O)N(CC#N)C[C@H]2CCC3=Cc4c(cnn4-c4ccc(F)cc4)C[C@@]32C)s1` [Example 35], affinity was put at a Ki of 5.1 nM. Take `C[C@]12Cc3cnn(-c4ccc(F)cc4)c3C=C1CC[C@@H]2CN(CC#N)S(=O)(=O)c1cccc(C#N)c1` [Example 36, 3-cyano-N-(cyanomethyl)-N-{[(4αR,5S)-1-(4-fluorophenyl)-4α-methyl-1,4,4α,5,6,7-hexahydrocyclopenta[f]indazol-5-yl]methyl}benzenesulfonamide]: the affinity, expressed as Ki, was 2.5 nM. Consider `Cn1cnc(S(=O)(=O)N(CC#N)C[C@H]2CCC3=Cc4c(cnn4-c4ccc(F)cc4)C[C@@]32C)c1` [Example 37, N-(cyanomethyl)-N-{[(4αR,5S)-1-(4-fluorophenyl}-4α-methyl-1,4,4α,5,6,7-hexahydrocyclopenta[f]indazol-5-yl]methyl}-1-methyl-1H-imidazole-4-sulfonamide], for which the Ki is 10.7 nM.

`C[C@]12Cc3cnn(-c4ccc(F)cc4)c3C=C1CC[C@@H]2CN(CC#N)S(=O)(=O)c1ccc(Oc2cccc(Cl)c2C#N)cc1` [Example 38, 4-(3-chloro-2-cyanophenoxy)-N-(cyanomethyl)-N-{[(4αR,5S)-1-(4-fluorophenyl)-4α-methyl-1,4,4α,5,6,7-hexahydrocyclopenta[f]indazol-5-yl]methyl}benzenesulfonamide] had a Ki of 6.4 nM. The figure for `CN1CCOc2cc(S(=O)(=O)N(CC#N)C[C@H]3CCC4=Cc5c(cnn5-c5ccc(F)cc5)C[C@@]43C)ccc21` [Example 39, N-(cyanomethyl)-N-{[(4αR,5S)-1-(4-fluorophenyl)-4α-methyl-1,4,4α,5,6,7-hexahydrocyclopenta[f]indazol-5-yl]methyl}-4-methyl-3,4-dihydro-2H-1,4-benzoxazine-7-sulfonamide] is 8.1 nM. For the compound `C[C@]12Cc3cnn(-c4ccc(F)cc4)c3C=C1CC[C@@H]2CN(CC#N)S(=O)(=O)c1cccc2ccccc12` [Example 40, N-(cyanomethyl)-N-{[(4αR,5S)-1-(4-fluorophenyl)-4α-methyl-1,4,4α,5,6,7-hexahydrocyclopenta[f]indazol-5-yl]methyl}naphthalene-1-sulfonamide], the Ki worked out at 10.5 nM. `C[C@]12Cc3cnn(-c4ccc(F)cc4)c3C=C1CC[C@@H]2CN(CC#N)S(=O)(=O)c1cc(OCC(F)(F)F)ccc1OCC(F)(F)F` [Example 41, N-(cyanomethyl)-N-{[(4αR,5S)-1-(4-fluorophenyl)-4α-methyl-1,4,4α,5,6,7-hexahydrocyclopenta[f]indazol-5-yl]methyl}-2,5-bis(2,2,2-trifluoroethoxy)benzenesulfonamide] came in with a Ki of 5.9 nM. `C[C@]12Cc3cnn(-c4ccc(F)cc4)c3C=C1CC[C@@H]2CN(CC#N)S(=O)(=O)c1ccc(-c2ccccc2)cc1` [Example 42, N-(cyanomethyl)-N-{[(4αR,5S)-1-(4-fluorophenyl)-4α-methyl-1,4,4α,5,6,7-hexahydrocyclopenta[f]indazol-5-yl]methyl}biphenyl-4-sulfonamide] had a Ki of 5.9 nM. `C[C@]12Cc3cnn(-c4ccc(F)cc4)c3C=C1CC[C@@H]2CN(CC#N)S(=O)(=O)c1ccccc1F` [Example 43, N-(cyanomethyl)-2-fluoro-N-{[(4αR,5S)-1-(4-fluorophenyl)-4α-methyl-1,4,4α,5,6,7-hexahydrocyclopenta[f]indazol-5-yl]methyl}benzenesulfonamide] displayed a Ki of 2.2 nM. In turn, `C[C@]12Cc3cnn(-c4ccc(F)cc4)c3C=C1CC[C@@H]2CN(CC#N)S(=O)(=O)c1cc(F)cc(F)c1` [Example 44, N-(cyanomethyl)-3,5-difluoro-N-{[(4αR,5S)-1-(4-fluorophenyl)-4α-methyl-1,4,4α,5,6,7-hexahydrocyclopenta[f]indazol-5-yl]methyl}benzenesulfonamide] yielded an inhibition constant (Ki) of 1.6 nM.

Compound `C[C@]12Cc3cnn(-c4ccc(F)cc4)c3C=C1CC[C@@H]2CN(CC#N)S(=O)(=O)c1ccc(Oc2ccccn2)cc1` [Example 45, N-(cyanomethyl)-N-{[(4αR,5S)-1-(4-fluorophenyl)-4α-methyl-1,4,4α,5,6,7-hexahydrocyclopenta[f]indazol-5-yl]methyl}-4-(pyridin-2-yloxy)benzenesulfonamide] showed an inhibition constant (Ki) of 2.4 nM. For the compound `C[C@]12Cc3cnn(-c4ccc(F)cc4)c3C=C1CC[C@@H]2CN(CC#N)S(=O)(=O)c1ccc(F)cc1` [Example 46, N-(cyanomethyl)-4-fluoro-N-{[(4αR,5S)-1-(4-fluorophenyl)-4α-methyl-1,4,4α,5,6,7-hexahydrocyclopenta[f]indazol-5-yl]methyl}benzenesulfonamide], affinity was put at a Ki of 0.7 nM.

The Ki is the equilibrium dissociation constant of an inhibitor or competing ligand from its target. A low value points to a stronger hold on the target.
